Data: PubChem BioAssay (NCI)
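Five compound concentrations were applied to cells in 96-well plates for 48 hours; endpoints were derived by simple linear interpolation of the resulting dose-response curve. The concentration for 50% growth inhibition is given as GI50. TGI denotes the concentration required for complete inhibition of growth.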

What was measured:
Assay in all cases: inhibition of tumour cell growth, NCI panel, 48 h
HS 578T breast = tested on: HS 578T breast
UO-31 renal = tested on: UO-31 renal
786-0 renal = tested on: 786-0 renal
NCI-H522 lung = tested on: NCI-H522 lung
SN12C renal = tested on: SN12C renal
M14 melanoma = tested on: M14 melanoma
HCC-2998 colon = tested on: HCC-2998 colon
NCI/ADR-RES ovarian = tested on: NCI/ADR-RES ovarian
DU-145 prostate = tested on: DU-145 prostate
HCT-116 colon = tested on: HCT-116 colon
NCI-H23 lung = tested on: NCI-H23 lung
MDA-MB-435 = tested on: MDA-MB-435
SNB-19 CNS = tested on: SNB-19 CNS
RXF 393 renal = tested on: RXF 393 renal
HT29 colon = tested on: HT29 colon
HOP-62 NSCLC = tested on: HOP-62 NSCLC
NCI-H226 lung = tested on: NCI-H226 lung
SK-MEL-2 melanoma = tested on: SK-MEL-2 melanoma
U251 CNS = tested on: U251 CNS
NCI-H460 lung = tested on: NCI-H460 lung
OVCAR-8 ovarian = tested on: OVCAR-8 ovarian
SNB-75 CNS = tested on: SNB-75 CNS
T-47D breast = tested on: T-47D breast
MDA-MB-231 breast = tested on: MDA-MB-231 breast
ACHN renal = tested on: ACHN renal
SK-MEL-5 melanoma = tested on: SK-MEL-5 melanoma
COLO 205 colon = tested on: COLO 205 colon
OVCAR-3 ovarian = tested on: OVCAR-3 ovarian
UACC-62 melanoma = tested on: UACC-62 melanoma
OVCAR-5 ovarian = tested on: OVCAR-5 ovarian
MCF7 breast = tested on: MCF7 breast
SK-OV-3 ovarian = tested on: SK-OV-3 ovarian
IGROV1 ovarian = tested on: IGROV1 ovarian
UACC-257 melanoma = tested on: UACC-257 melanoma
SF-268 CNS = tested on: SF-268 CNS
TK-10 renal = tested on: TK-10 renal
PC-3 prostate = tested on: PC-3 prostate
SK-MEL-28 melanoma = tested on: SK-MEL-28 melanoma
A549 NSCLC = tested on: A549 NSCLC
HCT-15 colon = tested on: HCT-15 colon
BT-549 breast = tested on: BT-549 breast
EKVX NSCLC = tested on: EKVX NSCLC
HOP-92 NSCLC = tested on: HOP-92 NSCLC
SW-620 colon = tested on: SW-620 colon
RPMI-8226 leukemia = tested on: RPMI-8226 leukemia
MALME-3M melanoma = tested on: MALME-3M melanoma
CCRF-CEM leukemia = tested on: CCRF-CEM leukemia
SF-539 CNS = tested on: SF-539 CNS
A498 renal = tested on: A498 renal
OVCAR-4 ovarian = tested on: OVCAR-4 ovarian
LOX IMVI melanoma = tested on: LOX IMVI melanoma
SR leukemia = tested on: SR leukemia
MOLT-4 leukemia = tested on: MOLT-4 leukemia
HL-60(TB) leukemia = tested on: HL-60(TB) leukemia
SF-295 CNS = tested on: SF-295 CNS
KM12 colon = tested on: KM12 colon
K-562 leukemia = tested on: K-562 leukemia
CAKI-1 renal = tested on: CAKI-1 renal

Cc1n[n+]([O-])c(C)cc1[N+](=O)[O-]
TGI (HS 578T breast): 66.9 µM
TGI (UO-31 renal): 29.7 µM
TGI (786-0 renal): > 100 µM
TGI (NCI-H522 lung): 25.6 µM
TGI (SN12C renal): 28.1 µM
TGI (M14 melanoma): 30.7 µM
TGI (HCC-2998 colon): 25 µM
TGI (NCI/ADR-RES ovarian): 42.1 µM
TGI (DU-145 prostate): 51.2 µM
TGI (HCT-116 colon): 31.6 µM
TGI (NCI-H23 lung): 29.9 µM
TGI (MDA-MB-435): 29 µM
TGI (SNB-19 CNS): > 100 µM
TGI (RXF 393 renal): 66.3 µM
TGI (HT29 colon): 27 µM
TGI (HOP-62 NSCLC): 42.7 µM
TGI (NCI-H226 lung): 60 µM
TGI (SK-MEL-2 melanoma): 42.3 µM
TGI (U251 CNS): 51.9 µM
TGI (NCI-H460 lung): 28.4 µM
TGI (OVCAR-8 ovarian): 31.6 µM
TGI (SNB-75 CNS): 54 µM
TGI (T-47D breast): 35.3 µM
TGI (MDA-MB-231 breast): 39.8 µM
TGI (ACHN renal): 30.2 µM
TGI (SK-MEL-5 melanoma): 29.8 µM
TGI (COLO 205 colon): 26.3 µM
TGI (OVCAR-3 ovarian): 27.6 µM
TGI (UACC-62 melanoma): 31.5 µM
TGI (OVCAR-5 ovarian): 36.8 µM
TGI (MCF7 breast): 45.6 µM
TGI (SK-OV-3 ovarian): > 100 µM
TGI (IGROV1 ovarian): 49 µM
TGI (UACC-257 melanoma): 29 µM
TGI (SF-268 CNS): > 100 µM
TGI (TK-10 renal): 24.5 µM
TGI (PC-3 prostate): 65.2 µM
TGI (SK-MEL-28 melanoma): 31.9 µM
TGI (A549 NSCLC): 48.1 µM
TGI (HCT-15 colon): 29.3 µM
TGI (BT-549 breast): 51.5 µM
TGI (EKVX NSCLC): 45.4 µM
TGI (HOP-92 NSCLC): 34.3 µM
TGI (SW-620 colon): 28.2 µM
TGI (RPMI-8226 leukemia): 6.31 µM
TGI (MALME-3M melanoma): 35.3 µM
TGI (CCRF-CEM leukemia): 9.32 µM
TGI (SF-539 CNS): 59.3 µM
TGI (A498 renal): 40.6 µM
TGI (OVCAR-4 ovarian): 33.5 µM
TGI (LOX IMVI melanoma): 57.9 µM

Clc1ccc2ncc(-c3cccc(NC4CNC4)n3)n2c1
GI50 (HS 578T breast): 3.91 µM
TGI (HS 578T breast): 20.6 µM
GI50 (UO-31 renal): 5.12 µM
TGI (UO-31 renal): 88.5 µM
GI50 (786-0 renal): 7.96 µM
TGI (786-0 renal): > 100 µM
GI50 (NCI-H522 lung): 6.13 µM
TGI (NCI-H522 lung): 27.9 µM
GI50 (SN12C renal): 1.58 µM
TGI (SN12C renal): > 100 µM
GI50 (M14 melanoma): 8.87 µM
TGI (M14 melanoma): 25.5 µM
GI50 (HCC-2998 colon): 12.9 µM
TGI (HCC-2998 colon): 68.2 µM
GI50 (NCI/ADR-RES ovarian): 33.5 µM
TGI (NCI/ADR-RES ovarian): > 100 µM
GI50 (DU-145 prostate): 4.58 µM
TGI (DU-145 prostate): > 100 µM
GI50 (HCT-116 colon): 3.7 µM
TGI (HCT-116 colon): > 100 µM
GI50 (NCI-H23 lung): 7.66 µM
TGI (NCI-H23 lung): 36.3 µM
GI50 (MDA-MB-435): 4.76 µM
TGI (MDA-MB-435): 21.5 µM
GI50 (SNB-19 CNS): 24.1 µM
TGI (SNB-19 CNS): > 100 µM
GI50 (RXF 393 renal): 1.45 µM
TGI (RXF 393 renal): 11.6 µM
GI50 (HT29 colon): 3.21 µM
TGI (HT29 colon): > 100 µM
GI50 (HOP-62 NSCLC): 5.98 µM
TGI (HOP-62 NSCLC): 65.4 µM
GI50 (SK-MEL-2 melanoma): 13.5 µM
TGI (SK-MEL-2 melanoma): 37.9 µM
GI50 (U251 CNS): 6.85 µM
TGI (U251 CNS): 48.7 µM
GI50 (SR leukemia): 1.97 µM
TGI (SR leukemia): > 100 µM
GI50 (NCI-H460 lung): 2.96 µM
TGI (NCI-H460 lung): 13.5 µM
GI50 (OVCAR-8 ovarian): 3.92 µM
TGI (OVCAR-8 ovarian): 84.3 µM
GI50 (SNB-75 CNS): 10.6 µM
TGI (SNB-75 CNS): 27.8 µM
GI50 (T-47D breast): 20.2 µM
TGI (T-47D breast): 73.8 µM
GI50 (MOLT-4 leukemia): 5.03 µM
TGI (MOLT-4 leukemia): > 100 µM
GI50 (MDA-MB-231 breast): 6.48 µM
TGI (MDA-MB-231 breast): 75.1 µM
GI50 (ACHN renal): 1.91 µM
TGI (ACHN renal): > 100 µM
GI50 (SK-MEL-5 melanoma): 16.1 µM
TGI (SK-MEL-5 melanoma): 76.1 µM
GI50 (COLO 205 colon): 2.11 µM
TGI (COLO 205 colon): 7.31 µM
GI50 (HL-60(TB) leukemia): 4.54 µM
TGI (HL-60(TB) leukemia): 42.2 µM
GI50 (OVCAR-3 ovarian): 18.9 µM
TGI (OVCAR-3 ovarian): > 100 µM
GI50 (UACC-62 melanoma): 10.2 µM
TGI (UACC-62 melanoma): 27.3 µM
GI50 (OVCAR-5 ovarian): 6.45 µM
TGI (OVCAR-5 ovarian): > 100 µM
GI50 (SF-295 CNS): 3.34 µM
TGI (SF-295 CNS): 20.2 µM
GI50 (MCF7 breast): 4.64 µM
TGI (MCF7 breast): 52.3 µM
GI50 (SK-OV-3 ovarian): 9.24 µM
TGI (SK-OV-3 ovarian): > 100 µM
GI50 (IGROV1 ovarian): 4.57 µM
TGI (IGROV1 ovarian): 44.6 µM
GI50 (UACC-257 melanoma): 11.5 µM
TGI (UACC-257 melanoma): 51.4 µM
GI50 (SF-268 CNS): 8.7 µM
TGI (SF-268 CNS): 33 µM
GI50 (TK-10 renal): 8.03 µM
TGI (TK-10 renal): 93.3 µM
GI50 (KM12 colon): 0.686 µM
TGI (KM12 colon): > 100 µM
GI50 (PC-3 prostate): 4.55 µM
TGI (PC-3 prostate): 80.9 µM
GI50 (SK-MEL-28 melanoma): 13 µM
TGI (SK-MEL-28 melanoma): > 100 µM
GI50 (A549 NSCLC): 4.71 µM
TGI (A549 NSCLC): > 100 µM
GI50 (HCT-15 colon): 5.39 µM
TGI (HCT-15 colon): > 100 µM
GI50 (BT-549 breast): 10.5 µM
TGI (BT-549 breast): 31.8 µM
GI50 (K-562 leukemia): 8.9 µM
TGI (K-562 leukemia): > 100 µM
GI50 (HOP-92 NSCLC): 20.5 µM
TGI (HOP-92 NSCLC): 67.7 µM
GI50 (SW-620 colon): 2.92 µM
TGI (SW-620 colon): 15.8 µM
GI50 (CAKI-1 renal): 4.51 µM
TGI (CAKI-1 renal): 84.1 µM
GI50 (MALME-3M melanoma): 8.59 µM
TGI (MALME-3M melanoma): 26.4 µM
GI50 (CCRF-CEM leukemia): 3.62 µM
TGI (CCRF-CEM leukemia): 72.7 µM
GI50 (SF-539 CNS): 2.92 µM
TGI (SF-539 CNS): 17.3 µM
GI50 (A498 renal): 5.7 µM
TGI (A498 renal): 19.7 µM
GI50 (LOX IMVI melanoma): 2.47 µM
TGI (LOX IMVI melanoma): 13.8 µM
